Measurements: patent publication US8193154B2, “Oligopeptide tyrosinase inhibitors and uses thereof” (The Board of Trustees of the Leland Stanford Junior …, priority 2007, dated 2012)
Like-named read-outs stand apart in the source and are kept apart here.

Tests used:
[1] = system: Primary human melanocytes; settings: for effect on melanocyte proliferation rates: FIG. 3
Procedure: Primary human melanocytes, passage 3, were kindly obtained from Dr. Todd Ridky in the department of dermatology, Stanford University. Cells were cultured in Medium 254 (Cascade Biologics) supplemented with Human Melanocyte Growth Supplement (HMGS, Cascade Biologics). They were grown in a humidified atmosphere with 5% CO2 at 37° C. Cell plating densities were arranged that those cells were in log phase of growth for the duration of incubation with test samples. Subcultures of cells were plated at a density of 4×10^4 cells/cm^2. Approximately 24 h later, fresh medium and test samples were added. Cells were harvested 7 d after test samples addition, replaced with fresh medium and test samples every two days.
Cell viability was determined using WST-1 Cell Proliferation Kit (Roche). Cells were plated at 1×10^5/well (24-well plates). Twenty-four hours after plating, test samples were added and cultures were incubated for an additional 7 d. At the end of the treatment period, 50 μl WST-1 was added to each well. The plates were placed at 37° C. for 4 h in the dark and the absorbance at 450 nm was read using microplate. Usually, 3 replicate wells were measured for each group to be tested. Wells containing medium but no cells served as controls. Cell viability was calculated according to the equation: cell viability=absorbance(sample tested)/absorbance(medium only)×100%.
The concentrations of HQ tested on melanocytes were 1, 10, 100, and 1000 μM, while those of YR peptide were 1, 10, and 100 μM.

Human melanocytes = test: Melanin content measurement in melanocytes; assay type: cell-based; settings: FIG. 4; for melanin content: 10 μM (YR peptide: similar concentration), 7 days
Procedure: Human melanocytes were cultured in 6-well plates and treated with individual test samples for 7 d. After washes in PBS, cells were detached by short incubation in trypsin/EDTA (0.25%/0.1% in PBS). An aliquot was used for cell count. The remaining cells were sonicated and incubated overnight in 500 μl 1 M NaOH at 37° C., avoid light. Melanin concentrations were calculated by comparison of the OD at 475 nm of unknown samples with a standard curve obtained with synthetic melanin.
To provide more direct evidence that the YR peptide inhibits melanogenesis, we determined its effects on melanin production in melanocytes. The contents of melanin in melanocytes treated with no addition, YR peptide (P4) or HQ for 7 days were determined with spectrophotometer and compared with melanin standard curve.

Cellular tyrosinase = molecular target: T1, Cellular tyrosinase (Homo sapiens, UniProt P14679); test: Cellular tyrosinase activity using L-DOPA as the substrate; assay type: cell-based; settings: for reduction of cellular tyrosinase activity: 7 d treatment of melanocytes
T1 construct: endogenous in cells; host or cells: primary human melanocytes, passage 3
T1 sequence (P14679 19-529): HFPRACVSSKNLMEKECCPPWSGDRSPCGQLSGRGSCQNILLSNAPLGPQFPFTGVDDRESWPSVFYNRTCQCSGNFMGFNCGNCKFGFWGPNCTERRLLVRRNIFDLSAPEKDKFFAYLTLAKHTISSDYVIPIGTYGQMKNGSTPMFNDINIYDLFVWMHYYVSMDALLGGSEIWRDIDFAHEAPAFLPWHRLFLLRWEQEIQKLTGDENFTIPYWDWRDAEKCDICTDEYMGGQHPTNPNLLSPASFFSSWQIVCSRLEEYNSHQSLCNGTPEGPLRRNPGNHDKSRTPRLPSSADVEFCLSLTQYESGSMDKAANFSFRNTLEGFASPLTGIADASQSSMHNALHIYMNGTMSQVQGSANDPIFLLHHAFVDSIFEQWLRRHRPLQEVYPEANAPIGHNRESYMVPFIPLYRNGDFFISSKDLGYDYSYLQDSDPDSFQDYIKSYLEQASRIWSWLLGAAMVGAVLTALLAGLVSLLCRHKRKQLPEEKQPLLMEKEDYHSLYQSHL
Procedure: Cellular tyrosinase activity using L-DOPA as the substrate was assayed by the method of Cheng K T, Hsu F L, Chen S H, Hsieh P K, Huang H S, Lee C K, Lee M H. 2007. […] Chem. Pharm Bull 55(5): 757-761.
Human melanocytes were cultured in 6-well plates. After treatment with individual test samples for 7 d, the cells were washed with phosphate-buffered saline (PBS) and lysed with phosphate buffer, pH 6.8, containing 1% Triton X-100. After sonication, lysates were clarified by centrifugation at 10000 g for 10 min. After determination of protein content with a Bio-Rad protein assay kit, lysates were added to 96 well culture plate containing equal amounts of protein (40 μg), and adjusted with lysis buffer to reach 150 μl in each well. 75 μl of 10 mM L-DOPA dissolved in lysis buffer was added to each well. The culture plate was incubated at 37° C. for 30 min, and then read with the spectrophotometer at 475 nm.
Tyrosinase inhibitory activity was calculated with the following formula: tyrosinase inhibition (%)=[1−(O.D.475 of sample/O.D.475 of control)]×100%.
After centrifugation and protein calculation, certain volume of supernatant for each sample was transferred to 96 well culture plate by compensating a certain protein content in each well, and adjusted the volume of each well to 150 μl with 0.067 M of phosphate buffer (pH 6.8). 75 μl of 10 mM L-DOPA dissolved in phosphate buffer (pH 6.8) was added to each well. The culture plate was incubated at 37° C. for 30 min, and then read with the spectrophotometer at 475 nm.

tyrosinase = settings: read-out: published IC50; literature value; cited from earlier work
Mushroom tyrosinase = Mushroom tyrosinase inhibition, colorimetric detection of dopachrome from L-tyrosine; assay type: biochemical; settings: for IC50 (result in words): L-tyrosine substrate, pH 6.8, 37° C., absorbance at 475 nm 30 min after initiation; for inhibitory activity on tyrosinase: in vitro, FIG. 1, FIG. 2 and peptide screen
Procedure: Mushroom tyrosinase, L-tyrosine and other chemicals for the enzymatic reaction were obtained from Sigma-Aldrich. […] All synthetic peptides were between 3 and 10 amino acids in length and were synthesized using tBoc and/or Fmoc solid phase chemistry.
Inhibition of tyrosinase by experimental peptides was determined by colorimetric detection of dopachrome, the reaction product of the substrate L-tyrosine. Mushroom tyrosinase, L-tyrosine, and a potassium phosphate buffer (pH 6.8) were added to 96-well plates containing short sequence peptides dissolved in 5% DMSO and incubated at 37° C. The absorbance at 475 nm was measured using a BIO-TEK plate reader 30 min after reaction initiation. Each experiment was performed in triplicate on 3 separate occasions. The protocol is described in further detail in Piao et al., “Mushroom Tyrosinase Inhibition Activity of Some Chromones,” Chem. Pharm. Bull. […]: 309-311 (2002), and in Pomerants, J. Biol. Chem. 238:2351-2357 (1963).
Enzyme kinetics were calculated using the Michaelis-Menton equation by observing changes in reaction velocity accompanying substrate concentrations of 0.5, 1, 2, and 4 mM L-tyrosine. Once initial reaction velocities were obtained, Lineweaver-Burke plots were created to calculate Km, Vmax, and to determine the mode of enzymatic inhibition.
Tyrosinase inhibition activity was determined in vitro using L-tyrosine as substrate with a modified method from Piao L Z, Park H R, Park Y K, Lee S K, Park J H, Park M K. 2002. Mushroom Tyrosinase Inhibition Activity of Some Chromones. Chem. Pharm Bull 50(3): 309-311.
The concentration of enzyme, substrate and inhibitor was denoted as [E], [S] and […], respectively. 80 microliters of 0.067 M potassium phosphate buffer (pH 6.8), 40 microliters of L-tyrosine in 0.067 M potassium phosphate buffer (pH 6.8), 40 microliters of inhibitor in 5% DMSO solution, and 40 microliters of mushroom tyrosinase solution were added to a 96-well microplate, to make the final concentration of each reagent to be: 0.2 mg/ml [S], and 96 units/ml [E], with varying [I]. 5% DMSO solution instead of an inhibitor solution was added to a blank solution and adjusted to the total volume of 200 microliters as control. The assay mixture was incubated at 37° C. The amount of dopachrome produced in the reaction mixture was measured at 475 nm in a microplate reader at different time periods. The percentage of inhibition of tyrosinase activity was calculated as follows: Inhibition(%)=[(A−B)−C−D)]/(A−B)×100 • A: absorbance of blank solution after incubation • B: absorbance of blank solution before incubation • C: absorbance of sample solution after incubation • D: absorbance of sample solution before incubation

| Molecule | melanin content (Human melanocytes) | reduction of cellular tyrosinase activity (Cellular tyrosinase; 10 μM) [%] | IC50 (result in words) (Mushroom tyrosinase) | inhibitory activity on tyrosinase (Mushroom tyrosinase) | further results |
| --- | --- | --- | --- | --- | --- |
| Oc1ccc(O)cc1 [HQ, Hydroquinone, reference compound] | slightly reduced melanin content | 28.8 |  |  | effect on melanocyte proliferation rates ([1]; up to 10 μM): did not show inhibitory effects; IC50 (tyrosinase): ~700 µM |
| KFEFKFEF |  |  | no effect | only the former peptide had inhibiting activity |  |
| KFEKKFEK |  |  |  | had inhibiting activity |  |
| VLLK [control peptide; inner standard in stability testing] |  |  | no effect | only the YR peptide had inhibitory activity |  |
| YRSRKYSSWY | significantly reduced melanin content, to a greater extent than HQ | 24.1 |  | had inhibitory activity on tyrosinase | effect on melanocyte proliferation rates ([1]; 1, 10 and 100 μM, listed as P4): did not observe any inhibitory effects; effect on melanocyte proliferation rates ([1]; 1, 10 and 100 μM, listed as YR peptide): did not inhibit cell proliferation; toxicity to melanocytes ([1]; up to 100 μM, treatment for 7 days): No toxicity was observed; melanin synthesis in human melanocytes (Human melanocytes): inhibited melanin synthesis; reduction of cellular tyrosinase activity (Cellular tyrosinase; 1 μM): 14.5%; reduction of cellular tyrosinase activity (Cellular tyrosinase; 100 μM): 37.4%; inhibition of tyrosinase activity, in words (Cellular tyrosinase; FIG. 5, after incubation of melanocytes): comparable to that of HQ |
